# Assay results reported in ChEMBL document CHEMBL4431341, “Synthesis and anticancer activity of a hydroxytolan series” (Bioorg Med Chem Lett, 2016).
# Active and inactive are the calls of the source. No cut-off for these calls is given here.
# Assays:
# DU-145 [1] = test: Cytotoxicity against human DU145 cells after 48 hrs by MTT assay; type: functional; conditions: DU-145, 48 h, read-out: CD50 (the source's name)
# T-24 [2] = test: Cytotoxicity against human T24 cells after 48 hrs by MTT assay; type: functional; conditions: T-24, 48 h, read-out: CD50 (the source's name)
# T-24 [3] = test: Cytotoxicity against human T24 cells after 24 hrs by MTT assay; type: functional; conditions: T-24, 24 h, read-out: CD50 (the source's name)
# DU-145 [4] = test: Cytotoxicity against human DU145 cells assessed as inhibition of cell viability at 2 to 500 uM after 24 hrs by MTT assay; type: functional, cell-based
# MDAH 2774 [5] = test: Cytotoxicity against human MDAH 2774 cells after 48 hrs by MTT assay; type: functional; conditions: MDAH 2774, 48 h, read-out: CD50 (the source's name)
# DU-145 [6] = test: Pro-oxidative activity in human DU145 cells assessed as increase in H2O2 mediated DCF formation at 25 to 100 uM preincubated with DCFH-DA for 30 mins followed by compound treatment for 3 hrs by fluorescence analysis; type: functional, cell-based
# [7] = Cytotoxicity against human MHRF cells after 48 hrs by MTT assay; type: cell-based; conditions: read-out: CD50
# DU-145 [8] = test: Cytotoxicity against human DU145 cells assessed as inhibition of cell viability at 2 to 500 uM after 24 hrs in presence of CAT by MTT assay; type: functional, cell-based
# DU-145 [9] = test: Cytotoxicity against human DU145 cells after 24 hrs by MTT assay; type: functional; conditions: DU-145, 24 h, read-out: CD50 (the source's name)
# [10] = Lipophilicity, log P of the compound; type: physicochemical; conditions: octanol/water
# DU-145 [11] = test: Cytotoxicity against human DU145 cells after 72 hrs by MTT assay; type: functional; conditions: DU-145, 72 h, read-out: CD50 (the source's name)
# MDAH 2774 [12] = test: Cytotoxicity against human MDAH 2774 cells after 72 hrs by MTT assay; type: functional; conditions: MDAH 2774, 72 h, read-out: CD50 (the source's name)
# [13] = Cytotoxicity against human MHRF cells after 24 hrs by MTT assay; type: cell-based; conditions: read-out: CD50
# T-24 [14] = test: Cytotoxicity against human T24 cells after 72 hrs by MTT assay; type: functional; conditions: T-24, 72 h, read-out: CD50 (the source's name)
# MDAH 2774 [15] = test: Cytotoxicity against human MDAH 2774 cells after 24 hrs by MTT assay; type: functional; conditions: MDAH 2774, 24 h, read-out: CD50 (the source's name)
# [16] = Cytotoxicity against human MHRF cells after 72 hrs by MTT assay; type: cell-based; conditions: read-out: CD50
# T-24 [17] = test: Potency index, ratio of CD50 for RES to CD50 for test compound against human T24 cells after 24 hrs; type: functional
# [18] = Ratio of CD50 for test compound to CD50 for RES against human MHRF cells after 72 hrs; type: ADME, cell-based
# MDAH 2774 [19] = test: Potency index, ratio of CD50 for RES to CD50 for test compound against human MDAH 2774 cells after 24 hrs; type: functional
# [20] = Selectivity index, ratio of CD50 against human MHRF cells to CD50 for human T24 cells after 72 hrs
# [21] = Selectivity index, ratio of CD50 against human MHRF cells to CD50 for human T24 cells after 48 hrs
# T-24 [22] = test: Potency index, ratio of CD50 for RES to CD50 for test compound against human T24 cells after 72 hrs; type: functional
# [23] = Selectivity index, ratio of CD50 against human MHRF cells to CD50 for human DU145 cells after 48 hrs
# [24] = Ratio of CD50 for test compound to CD50 for RES against human MHRF cells after 48 hrs; type: ADME, cell-based
# DU-145 [25] = test: Potency index, ratio of CD50 for RES to CD50 for test compound against human DU145 cells after 48 hrs; type: functional
# DU-145 [26] = test: Potency index, ratio of CD50 for RES to CD50 for test compound against human DU145 cells after 24 hrs; type: functional
# DU-145 [27] = test: Potency index, ratio of CD50 for RES to CD50 for test compound against human DU145 cells after 72 hrs; type: functional
# [28] = Selectivity index, ratio of CD50 against human MHRF cells to CD50 for human DU145 cells after 72 hrs
# MDAH 2774 [29] = test: Potency index, ratio of CD50 for RES to CD50 for test compound against human MDAH 2774 cells after 72 hrs; type: functional
# [30] = Selectivity index, ratio of CD50 against human MHRF cells to CD50 for human MDAH 2774 cells after 48 hrs
# [31] = Selectivity index, ratio of CD50 against human MHRF cells to CD50 for human MDAH 2774 cells after 24 hrs
# MDAH 2774 [32] = test: Potency index, ratio of CD50 for RES to CD50 for test compound against human MDAH 2774 cells after 48 hrs; type: functional
# [33] = Selectivity index, ratio of CD50 against human MHRF cells to CD50 for human MDAH 2774 cells after 72 hrs
# [34] = Selectivity index, ratio of CD50 against human MHRF cells to CD50 for human T24 cells after 24 hrs
# [35] = Selectivity index, ratio of CD50 against human MHRF cells to CD50 for human DU145 cells after 24 hrs
# [36] = Ratio of CD50 for test compound to CD50 for RES against human MHRF cells after 24 hrs; type: ADME, cell-based
# T-24 [37] = test: Potency index, ratio of CD50 for RES to CD50 for test compound against human T24 cells after 48 hrs; type: functional
smiles,measurement,setting,value
Oc1ccc(/C=C/c2cc(O)cc(O)c2)cc1 [RESVERATROL],CC50,DU-145 [1],58.2 µM
same,CC50,T-24 [2],61.8 µM
same,CC50,T-24 [3],210 µM
same,inhibition,DU-145 [4],inactive
same,CC50,MDAH 2774 [5],23 µM
same,Activity,DU-145 [6],inactive
same,CC50 at 48 h,[7],50.9 µM
same,inhibition,DU-145 [8],inactive
same,CC50,DU-145 [9],92.2 µM
same,logP,[10],1.85
same,CC50,DU-145 [11],27.9 µM
same,CC50,MDAH 2774 [12],14.6 µM
same,CC50 at 24 h,[13],155 µM
same,CC50,T-24 [14],22.7 µM
same,CC50,MDAH 2774 [15],36.9 µM
same,CC50 at 72 h,[16],32 µM
Oc1ccc(C#Cc2ccc(O)cc2)cc1,Ratio,T-24 [17],2.5
same,CC50,DU-145 [1],12.6 µM
same,Ratio,[18],0.2
same,CC50,T-24 [2],31.1 µM
same,Ratio,MDAH 2774 [19],1.7
same,Selectivity Index,[20],18
same,CC50,T-24 [3],82.6 µM
same,inhibition,DU-145 [4],Active
same,Selectivity Index,[21],6.2
same,CC50,MDAH 2774 [5],10.5 µM
same,Ratio,T-24 [22],2.7
same,Selectivity Index,[23],15.4
same,Activity,DU-145 [6],Active
same,selectivity ratio at 48 h,[24],0.3
same,CC50 at 48 h,[7],194 µM
same,Ratio,DU-145 [25],4.6
same,inhibition,DU-145 [8],inactive
same,CC50,DU-145 [9],46.7 µM
same,logP,[10],2.3
same,CC50,DU-145 [11],5.6 µM
same,Ratio,DU-145 [26],2
same,CC50,MDAH 2774 [12],3.1 µM
same,Ratio,DU-145 [27],5
same,CC50 at 24 h,[13],299 µM
same,Selectivity Index,[28],27.3
same,Ratio,MDAH 2774 [29],4.7
same,CC50,T-24 [14],8.5 µM
same,Selectivity Index,[30],18.5
same,Selectivity Index,[31],13.9
same,Ratio,MDAH 2774 [32],2.2
same,Selectivity Index,[33],49.3
same,Selectivity Index,[34],3.6
same,Selectivity Index,[35],6.4
same,CC50,MDAH 2774 [15],21.5 µM
same,CC50 at 72 h,[16],153 µM
same,selectivity ratio at 24 h,[36],0.5
same,Ratio,T-24 [37],2
Oc1ccc(C#Cc2cc(O)cc(O)c2)cc1,Ratio,T-24 [17],2.3
same,CC50,DU-145 [1],37.4 µM
same,Ratio,[18],0.2
same,CC50,T-24 [2],41.1 µM
same,Ratio,MDAH 2774 [19],0.7
same,Selectivity Index,[20],7.2
same,CC50,T-24 [3],92.2 µM
same,Selectivity Index,[21],4.8
same,CC50,MDAH 2774 [5],26.4 µM
same,Ratio,T-24 [22],1
same,Selectivity Index,[23],5.3
same,selectivity ratio at 48 h,[24],0.3
same,CC50 at 48 h,[7],198 µM
same,Ratio,DU-145 [25],1.6
same,CC50,DU-145 [9],55.7 µM
same,logP,[10],1.85
same,CC50,DU-145 [11],20.3 µM
same,Ratio,DU-145 [26],1.7
same,CC50,MDAH 2774 [12],20.4 µM
same,Ratio,DU-145 [27],1.4
same,CC50 at 24 h,[13],295 µM
same,Selectivity Index,[28],8.6
same,Ratio,MDAH 2774 [29],0.7
same,CC50,T-24 [14],24.3 µM
same,Selectivity Index,[30],7.5
same,Selectivity Index,[31],5.5
same,Ratio,MDAH 2774 [32],0.9
same,Selectivity Index,[33],8.6
same,Selectivity Index,[34],3.2
same,Selectivity Index,[35],5.3
same,CC50,MDAH 2774 [15],54.1 µM
same,CC50 at 72 h,[16],175 µM
same,selectivity ratio at 24 h,[36],0.5
same,Ratio,T-24 [37],1.5
Oc1cc(O)cc(C#Cc2cc(O)cc(O)c2)c1,Ratio,T-24 [17],4.7
same,CC50,DU-145 [1],31.6 µM
same,Ratio,[18],0.5
same,CC50,T-24 [2],27.3 µM
same,Ratio,MDAH 2774 [19],1.7
same,Selectivity Index,[20],3.3
same,CC50,T-24 [3],44.7 µM
same,Selectivity Index,[21],4.1
same,CC50,MDAH 2774 [5],21.5 µM
same,Ratio,T-24 [22],1.1
same,Selectivity Index,[23],3.6
same,selectivity ratio at 48 h,[24],0.5
same,CC50 at 48 h,[7],113 µM
same,Ratio,DU-145 [25],1.8
same,CC50,DU-145 [9],57 µM
same,CC50,DU-145 [11],17 µM
same,Ratio,DU-145 [26],1.6
same,CC50,MDAH 2774 [12],16.8 µM
same,Ratio,DU-145 [27],5
same,CC50 at 24 h,[13],156 µM
same,Selectivity Index,[28],4
same,Ratio,MDAH 2774 [29],0.9
same,CC50,T-24 [14],20.1 µM
same,Selectivity Index,[30],5.2
same,Selectivity Index,[31],5
same,Ratio,MDAH 2774 [32],0.7
same,Selectivity Index,[33],4
same,Selectivity Index,[34],3.5
same,Selectivity Index,[35],2.7
same,CC50,MDAH 2774 [15],31.4 µM
same,CC50 at 72 h,[16],66.9 µM
same,selectivity ratio at 24 h,[36],1
same,Ratio,T-24 [37],2.3
